Assay results published in ChEMBL document CHEMBL5150061, “Design and Synthesis of Fibroblast Growth Factor Receptor (FGFR) and Histone Deacetylase (HDAC) Dual Inhibitors for the Treatment of Cancer” (J Med Chem, 2022).
Values belong to the compound of their own block, whether it stands above or below them. Activity calls are given as the source filed them. The rule behind the calls is not given here.

Experiments:
Histone deacetylase 1 = Histone deacetylase 1 (Homo sapiens, UniProt Q13547); experiment: Inhibition of HDAC1 (unknown origin)
Sequence of Histone deacetylase 1 (Q13547 whole entry): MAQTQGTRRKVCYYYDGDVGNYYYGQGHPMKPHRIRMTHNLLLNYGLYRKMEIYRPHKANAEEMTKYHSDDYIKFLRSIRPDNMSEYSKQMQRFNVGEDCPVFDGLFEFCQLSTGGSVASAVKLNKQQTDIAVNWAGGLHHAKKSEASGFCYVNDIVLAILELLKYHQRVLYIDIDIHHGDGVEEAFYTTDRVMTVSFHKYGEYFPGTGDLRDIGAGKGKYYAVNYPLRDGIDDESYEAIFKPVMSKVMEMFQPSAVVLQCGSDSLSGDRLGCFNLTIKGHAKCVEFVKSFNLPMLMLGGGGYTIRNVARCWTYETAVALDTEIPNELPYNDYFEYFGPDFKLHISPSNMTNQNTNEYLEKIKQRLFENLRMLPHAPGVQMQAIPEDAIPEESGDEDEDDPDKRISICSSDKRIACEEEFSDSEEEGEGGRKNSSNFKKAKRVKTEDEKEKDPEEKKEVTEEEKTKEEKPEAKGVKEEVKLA

[1] = biological target: T1, Protein deacetylase HDAC6 (Homo sapiens, UniProt Q9UBN7); experiment: Inhibition of HDAC6 (unknown origin)
T1 sequence (Q9UBN7 whole entry): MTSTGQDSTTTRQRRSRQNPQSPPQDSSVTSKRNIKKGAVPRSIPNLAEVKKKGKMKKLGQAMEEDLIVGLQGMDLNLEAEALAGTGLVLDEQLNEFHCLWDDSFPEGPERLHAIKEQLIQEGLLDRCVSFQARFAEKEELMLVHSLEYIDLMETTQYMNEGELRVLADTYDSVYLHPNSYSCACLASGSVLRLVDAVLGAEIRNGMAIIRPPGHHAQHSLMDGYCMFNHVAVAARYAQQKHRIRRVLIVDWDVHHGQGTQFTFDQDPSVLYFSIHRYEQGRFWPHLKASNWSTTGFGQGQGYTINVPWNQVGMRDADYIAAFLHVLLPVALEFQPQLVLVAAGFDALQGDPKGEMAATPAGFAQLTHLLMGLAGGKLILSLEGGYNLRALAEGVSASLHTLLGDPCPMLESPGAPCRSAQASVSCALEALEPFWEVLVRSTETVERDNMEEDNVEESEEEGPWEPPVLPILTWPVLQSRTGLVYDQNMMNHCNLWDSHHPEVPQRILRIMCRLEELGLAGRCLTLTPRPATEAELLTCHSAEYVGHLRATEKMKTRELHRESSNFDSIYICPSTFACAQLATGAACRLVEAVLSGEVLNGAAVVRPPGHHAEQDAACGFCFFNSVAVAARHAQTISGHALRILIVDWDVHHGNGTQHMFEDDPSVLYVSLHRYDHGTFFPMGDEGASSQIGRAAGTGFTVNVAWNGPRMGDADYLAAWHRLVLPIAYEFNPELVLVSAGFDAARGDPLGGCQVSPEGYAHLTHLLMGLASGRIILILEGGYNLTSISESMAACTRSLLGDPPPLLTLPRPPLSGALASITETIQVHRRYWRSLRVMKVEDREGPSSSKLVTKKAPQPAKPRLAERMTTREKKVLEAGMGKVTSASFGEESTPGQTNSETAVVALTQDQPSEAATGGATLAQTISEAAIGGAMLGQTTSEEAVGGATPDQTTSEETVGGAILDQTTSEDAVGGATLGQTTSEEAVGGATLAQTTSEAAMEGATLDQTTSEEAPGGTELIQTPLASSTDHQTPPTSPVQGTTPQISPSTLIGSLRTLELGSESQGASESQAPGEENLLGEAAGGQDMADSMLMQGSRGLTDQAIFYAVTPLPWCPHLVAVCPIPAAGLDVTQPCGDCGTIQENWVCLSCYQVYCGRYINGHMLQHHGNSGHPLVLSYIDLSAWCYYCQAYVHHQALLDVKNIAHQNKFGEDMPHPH

[2] = biological target: Fibroblast growth factor receptor 3 (Homo sapiens, UniProt P22607); experiment: Inhibition of FGFR3 (unknown origin)
Sequence of Fibroblast growth factor receptor 3 (P22607 whole entry): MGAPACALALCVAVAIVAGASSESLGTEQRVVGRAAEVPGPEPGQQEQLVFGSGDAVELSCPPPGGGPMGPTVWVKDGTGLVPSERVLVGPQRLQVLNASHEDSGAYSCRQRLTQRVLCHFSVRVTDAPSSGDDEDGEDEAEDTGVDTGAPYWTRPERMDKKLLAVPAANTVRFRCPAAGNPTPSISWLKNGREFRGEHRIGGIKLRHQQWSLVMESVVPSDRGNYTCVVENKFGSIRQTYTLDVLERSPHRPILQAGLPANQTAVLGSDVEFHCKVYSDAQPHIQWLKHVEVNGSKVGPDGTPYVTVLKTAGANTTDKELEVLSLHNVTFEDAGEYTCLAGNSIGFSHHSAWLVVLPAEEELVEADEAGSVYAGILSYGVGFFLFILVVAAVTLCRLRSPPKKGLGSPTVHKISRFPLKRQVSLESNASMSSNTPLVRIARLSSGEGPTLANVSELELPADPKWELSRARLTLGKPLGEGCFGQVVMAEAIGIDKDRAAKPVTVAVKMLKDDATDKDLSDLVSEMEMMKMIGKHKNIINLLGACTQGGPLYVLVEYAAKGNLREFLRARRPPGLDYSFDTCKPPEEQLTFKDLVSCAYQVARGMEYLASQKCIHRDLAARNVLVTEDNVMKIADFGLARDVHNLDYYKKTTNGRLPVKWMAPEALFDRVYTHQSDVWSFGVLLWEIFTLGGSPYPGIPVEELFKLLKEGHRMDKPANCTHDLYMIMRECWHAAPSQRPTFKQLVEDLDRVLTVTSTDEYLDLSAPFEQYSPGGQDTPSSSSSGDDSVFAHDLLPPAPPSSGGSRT

[3] = biological target: Fibroblast growth factor receptor 4 (Homo sapiens, UniProt P22455); experiment: Inhibition of FGFR4 (unknown origin)
Sequence of Fibroblast growth factor receptor 4 (P22455 whole entry): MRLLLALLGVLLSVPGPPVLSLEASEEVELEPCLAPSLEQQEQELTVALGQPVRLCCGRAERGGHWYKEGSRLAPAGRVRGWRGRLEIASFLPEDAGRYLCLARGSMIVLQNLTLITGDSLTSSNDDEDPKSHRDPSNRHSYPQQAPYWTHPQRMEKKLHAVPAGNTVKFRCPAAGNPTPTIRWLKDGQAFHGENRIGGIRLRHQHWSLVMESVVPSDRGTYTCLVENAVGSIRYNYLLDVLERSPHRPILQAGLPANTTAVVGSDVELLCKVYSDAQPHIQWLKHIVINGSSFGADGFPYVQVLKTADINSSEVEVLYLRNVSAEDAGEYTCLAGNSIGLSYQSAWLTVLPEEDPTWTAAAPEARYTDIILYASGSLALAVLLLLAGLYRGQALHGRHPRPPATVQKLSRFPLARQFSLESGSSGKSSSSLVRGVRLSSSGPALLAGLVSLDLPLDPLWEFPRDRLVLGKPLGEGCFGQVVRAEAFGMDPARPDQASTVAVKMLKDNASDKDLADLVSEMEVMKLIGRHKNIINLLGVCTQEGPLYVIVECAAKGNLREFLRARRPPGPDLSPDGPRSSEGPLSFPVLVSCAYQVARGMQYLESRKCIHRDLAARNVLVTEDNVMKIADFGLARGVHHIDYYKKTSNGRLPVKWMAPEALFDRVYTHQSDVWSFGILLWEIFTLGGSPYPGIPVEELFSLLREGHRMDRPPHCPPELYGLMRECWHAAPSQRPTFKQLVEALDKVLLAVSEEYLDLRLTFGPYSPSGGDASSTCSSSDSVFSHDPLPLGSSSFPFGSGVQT

Histone deacetylase 8 = biological target: T2, Histone deacetylase 8 (Homo sapiens, UniProt Q9BY41); experiment: Inhibition of HDAC8 (unknown origin)
T2 sequence (Q9BY41 whole entry): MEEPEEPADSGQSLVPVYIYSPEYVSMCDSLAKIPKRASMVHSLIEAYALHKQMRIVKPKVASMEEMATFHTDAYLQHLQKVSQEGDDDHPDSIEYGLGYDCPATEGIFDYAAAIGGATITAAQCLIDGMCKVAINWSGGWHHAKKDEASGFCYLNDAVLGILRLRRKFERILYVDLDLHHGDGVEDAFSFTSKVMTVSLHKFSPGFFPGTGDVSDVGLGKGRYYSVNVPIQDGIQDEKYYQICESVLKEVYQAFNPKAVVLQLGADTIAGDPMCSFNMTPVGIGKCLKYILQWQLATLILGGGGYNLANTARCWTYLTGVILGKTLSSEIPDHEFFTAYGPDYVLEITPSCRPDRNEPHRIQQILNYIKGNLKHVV

[4] = biological target: Fibroblast growth factor receptor 2 (Homo sapiens, UniProt P21802); experiment: Inhibition of FGFR2 (unknown origin)
Sequence of Fibroblast growth factor receptor 2 (P21802 whole entry): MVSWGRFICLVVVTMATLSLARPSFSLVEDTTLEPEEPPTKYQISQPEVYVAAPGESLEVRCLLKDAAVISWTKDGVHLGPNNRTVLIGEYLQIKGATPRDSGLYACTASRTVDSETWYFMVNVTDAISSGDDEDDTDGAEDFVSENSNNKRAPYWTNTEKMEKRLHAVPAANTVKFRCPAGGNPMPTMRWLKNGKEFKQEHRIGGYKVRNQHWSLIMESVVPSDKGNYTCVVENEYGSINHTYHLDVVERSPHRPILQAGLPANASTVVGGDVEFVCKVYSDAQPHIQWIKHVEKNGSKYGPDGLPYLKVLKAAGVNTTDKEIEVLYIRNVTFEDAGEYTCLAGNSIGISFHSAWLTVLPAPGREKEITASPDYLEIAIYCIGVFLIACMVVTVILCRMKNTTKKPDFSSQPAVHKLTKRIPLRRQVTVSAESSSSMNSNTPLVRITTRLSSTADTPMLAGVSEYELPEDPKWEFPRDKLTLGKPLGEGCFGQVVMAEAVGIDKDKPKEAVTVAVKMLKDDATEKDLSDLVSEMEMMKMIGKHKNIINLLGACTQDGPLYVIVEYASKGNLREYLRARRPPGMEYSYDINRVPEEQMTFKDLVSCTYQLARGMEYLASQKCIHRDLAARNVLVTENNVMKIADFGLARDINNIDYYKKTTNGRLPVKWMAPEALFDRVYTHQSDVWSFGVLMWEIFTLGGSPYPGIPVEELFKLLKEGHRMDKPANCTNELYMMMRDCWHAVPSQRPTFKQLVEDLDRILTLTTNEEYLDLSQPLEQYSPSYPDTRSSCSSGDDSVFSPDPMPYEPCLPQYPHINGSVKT

K562 = experiment: cells; assay type: functional, cell-based; conditions: Homo sapiens, K562, 72 h
SNU-16 [5] = conditions: Homo sapiens, dose 1-100 nM, time 36.0 hrs
SNU-16 [6] = conditions: Homo sapiens, dose 1-100 nM, time 36.0 hrs; remark: listed apart in the source
SNU-16 [7] = experiment: cells; assay type: functional, cell-based; conditions: Homo sapiens, SNU-16, 72 h
A2780 = experiment: cells; assay type: functional, cell-based; conditions: Homo sapiens, A2780, 72 h
cells = assay type: functional, cell-based; conditions: Homo sapiens, KATO III, 72 h
HCT-116 = experiment: cells; assay type: functional, cell-based; conditions: Homo sapiens, HCT-116, 72 h
Jurkat = experiment: cells; assay type: functional, cell-based; conditions: Homo sapiens, 72 h
[8] = biological target: Fibroblast growth factor receptor 1 (Homo sapiens, UniProt P11362); experiment: Inhibition of FGFR1 (unknown origin)
Sequence of Fibroblast growth factor receptor 1 (P11362 whole entry): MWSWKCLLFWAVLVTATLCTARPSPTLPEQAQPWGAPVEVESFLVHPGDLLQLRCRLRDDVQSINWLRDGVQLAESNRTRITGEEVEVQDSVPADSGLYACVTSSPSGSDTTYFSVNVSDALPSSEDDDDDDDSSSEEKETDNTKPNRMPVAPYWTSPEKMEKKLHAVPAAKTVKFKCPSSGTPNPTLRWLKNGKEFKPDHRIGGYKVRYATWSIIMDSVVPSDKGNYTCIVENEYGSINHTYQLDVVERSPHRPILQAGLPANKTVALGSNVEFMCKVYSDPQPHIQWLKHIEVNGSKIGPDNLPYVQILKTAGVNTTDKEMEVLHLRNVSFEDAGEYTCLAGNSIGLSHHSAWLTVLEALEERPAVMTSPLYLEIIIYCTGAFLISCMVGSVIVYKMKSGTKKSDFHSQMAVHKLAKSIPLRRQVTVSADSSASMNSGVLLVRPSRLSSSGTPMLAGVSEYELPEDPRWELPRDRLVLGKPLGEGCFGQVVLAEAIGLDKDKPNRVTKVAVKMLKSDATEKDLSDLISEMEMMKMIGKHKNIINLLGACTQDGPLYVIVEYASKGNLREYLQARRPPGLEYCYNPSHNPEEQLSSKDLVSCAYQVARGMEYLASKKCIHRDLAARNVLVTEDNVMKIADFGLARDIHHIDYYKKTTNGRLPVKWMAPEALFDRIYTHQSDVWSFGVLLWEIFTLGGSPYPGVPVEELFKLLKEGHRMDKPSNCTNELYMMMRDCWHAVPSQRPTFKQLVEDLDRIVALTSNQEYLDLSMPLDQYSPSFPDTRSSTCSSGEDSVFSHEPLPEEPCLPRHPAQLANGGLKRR

SMILES: COc1cc(OC)cc(N(CCNC(C)C)c2ccc3ncc(-c4cnn(CCc5ccc(C(=O)NO)cc5)c4)nc3c2)c1
IC50 (Histone deacetylase 1): 69 nM

SMILES: COc1cc(OC)cc(N(CCNC(C)C)c2ccc3ncc(-c4cnn(CCCC(=O)NO)c4)nc3c2)c1
IC50 (Histone deacetylase 1): 653 nM

SMILES: COc1cc(OC)cc(N(CCCCC(=O)NO)c2ccc3ncc(-c4cnn(C)c4)nc3c2)c1
IC50 [1]: 107 nM
IC50 (Histone deacetylase 1): 157 nM

SMILES: COc1cc(OC)cc(N(CCNC(C)C)c2ccc3ncc(-c4cnn(C)c4)nc3c2)c1 [ERDAFITINIB]
IC50 (K562): 3020 nM
inhibition (SNU-16 [5]): Dde
inhibition (SNU-16 [6]): Active
IC50 (SNU-16 [7]): 0.7 nM
IC50 (A2780): 20 nM
IC50 (cells): 4 nM
IC50 (HCT-116): 4240 nM
IC50 (Jurkat): 6810 nM

SMILES: COc1cc(OC)cc(N(CCNC(C)C)c2ccc3ncc(-c4cnn(CCCCCOc5ccc(C(=O)NO)cc5)c4)nc3c2)c1
IC50 (Histone deacetylase 1): 273 nM

SMILES: COc1cc(OC)cc(N(CC2CC2)c2ccc3ncc(-c4cnn(CCCCC(=O)NO)c4)nc3c2)c1
IC50 (Histone deacetylase 1): 177 nM

SMILES: COc1cc(OC)cc(N(CCNC(C)C)c2ccc3ncc(-c4cnn(Cc5ccc(CC(=O)NO)cc5)c4)nc3c2)c1
IC50 (Histone deacetylase 1): > 1000 nM

SMILES: COc1cc(OC)cc(N(CCNC(C)C)c2ccc3ncc(-c4cnn(CCCOc5ccc(C(=O)NO)cc5)c4)nc3c2)c1
IC50 (Histone deacetylase 1): 126 nM

SMILES: COc1cc(OC)cc(N(CCNC(C)C)c2ccc3ncc(-c4cnn(Cc5ccc(C(=O)NO)cc5)c4)nc3c2)c1
IC50 (Histone deacetylase 1): > 1000 nM

SMILES: COc1cc(OC)cc(N(CCNC(C)C)c2ccc3ncc(-c4cnn(CCCCOc5ccc(C(=O)NO)cc5)c4)nc3c2)c1
IC50 (Histone deacetylase 1): 160 nM

SMILES: COc1cc(OC)cc(N(CC2CC2)c2ccc3ncc(-c4cnn(CCCCCC(=O)NO)c4)nc3c2)c1
IC50 (Histone deacetylase 1): 77 nM

SMILES: COc1cc(OC)cc(N(CC2CC2)c2ccc3ncc(-c4cnn(CCCCCCCC(=O)NO)c4)nc3c2)c1
IC50 (Histone deacetylase 1): 172 nM

SMILES: COc1cc(OC)cc(N(CC2CC2)c2ccc3ncc(-c4cnn(CCCC(=O)NO)c4)nc3c2)c1
IC50 (Histone deacetylase 1): > 1000 nM

SMILES: COc1cc(OC)cc(N(CCNC(C)C)c2ccc3ncc(-c4cnn(Cc5cccc(C(=O)NO)c5)c4)nc3c2)c1
IC50 (Histone deacetylase 1): > 1000 nM

Other lines, results leading:

IC50 [1]: 13 nM
IC50 (Histone deacetylase 1): 5.8 nM
SMILES: COc1cc(OC)cc(N(CCCCCCC(=O)NO)c2ccc3ncc(-c4cnn(C)c4)nc3c2)c1

IC50 (Histone deacetylase 1): 4.4 nM
SMILES: COc1cc(OC)cc(N(CCNC(C)C)c2ccc3ncc(-c4cnn(CCCCCC(=O)NO)c4)nc3c2)c1

IC50 (Histone deacetylase 1): 6.3 nM
SMILES: COc1cc(OC)cc(N(CCNC(C)C)c2ccc3ncc(-c4cnn(CCCCCCCC(=O)NO)c4)nc3c2)c1

IC50 (Histone deacetylase 1): 5.7 nM
SMILES: COc1cc(OC)cc(N(CCNC(C)C)c2ccc3ncc(-c4cnn(CCC(=O)Nc5ccc(C(=O)NO)cc5)c4)nc3c2)c1

IC50 [1]: 3.4 nM
IC50 [2]: 0.62 nM
IC50 [3]: 1.3 nM
IC50 (Histone deacetylase 8): 288 nM
IC50 [4]: 1.9 nM
IC50 (Histone deacetylase 1): 5.9 nM
SMILES: COc1cc(OC)cc(N(CCNC(C)C)c2ccc3ncc(-c4cnn(CCOc5ccc(C(=O)NO)cc5)c4)nc3c2)c1

IC50 (Histone deacetylase 1): 16 nM
SMILES: COc1cc(OC)cc(N(CCNC(C)C)c2ccc3ncc(-c4cnn(CCCCCCCCC(=O)NO)c4)nc3c2)c1

IC50 (K562): 460 nM
IC50 [8]: 28 nM
IC50 (SNU-16 [7]): 50 nM
IC50 (A2780): 60 nM
IC50 (cells): 120 nM
IC50 (HCT-116): 60 nM
IC50 (Jurkat): 6380 nM
IC50 (Histone deacetylase 1): 47 nM
SMILES: COc1cc(OC)cc(N(CCNC(C)C)c2ccc3ncc(-c4cnn(Cc5ccc(/C=C/C(=O)NO)cc5)c4)nc3c2)c1

IC50 [1]: 6.3 nM
IC50 (Histone deacetylase 1): 2.6 nM
SMILES: COc1cc(OC)cc(N(CCCCCC(=O)NO)c2ccc3ncc(-c4cnn(C)c4)nc3c2)c1
